Data: patent US20190054097A1, “COMPOSITIONS TARGETING SENESCENT CELLS AND THE USES THEREOF” (BioVentures, LLC, priority 2016, published 2019)

What was measured:
[1] = test system: senescent cells; test: Cisplatin-induced peripheral neuropathy (CIPN) in C57BL/6 mice, Von Frey assay and Hot Plate Analgesia Meter; type: in vivo; settings: 50 mg/kg/day i.p., 5 days per cycle, 2 cycles, mechanical sensitivity and thermal allodynia, FIG. 5-7
Procedure: (§1) CIPN was induced in young adult male and female C57BL/6 mice by intraperitoneal (i.p.) injection of Cisplatin (Lake Zurich, Ill., USA) at 2.3 mg/kg/d for 5 days per cycle for 2 cycles with an interval of 5 days between the cycles. The induction of CIPN was measured by analyzing the mechanical sensitivity using the Von Frey assay the day before Cisplatin treatment and on various day after Cisplatin treatment
Mice were treated as described in FIG. 1. The induction of CIPN was measured by analyzing the sensitivity to thermal allodynia using the Hot Plate Analgesia Meter on various day after Cisplatin treatment. N=10 for control group and 5 for Cisplatin-treated groups. ***p<0.001 vs. Control.
To determine the effect of senescent cells on the induction of CIPN, Cisplatin-treated mice were administered with vehicle or ABT263 at 50 mg/kg/day for 5 days per cycle for 2 cycles with an interval of 17 days between the cycles by i.p. injection at the indicated times after Cisplatin treatment. The induction of CIPN was measured by analyzing the mechanical sensitivity using the Von Frey assay (FIG. 5 and FIG. 6) and by analyzing the sensitivity to thermal allodynia using the Hot Plate Analgesia Meter (FIG. 7) the day before Cisplatin treatment and on various day after Cisplatin treatment.

[2] = test system: bone marrow stromal cells; test: Five-day administration to aged mice: ex vivo bone marrow stromal cell cultures (qPCR, osteoblast and adipocyte differentiation); type: in vivo, 24-month-old female mice
Source text: We also isolated bone marrow stromal cells from mice treated with vehicle or the senolytics and cultured them for 5 days.
Conversely, bone marrow cells from the mice treated with senolytics cultured in the presence of adipogenic medium had decreased adipogenic potential (FIG. 14C).
(§2) Total RNA was extracted with Ultraspec (Biotecx Laboratories) and reverse-transcribed using the High-Capacity cDNA Archive Kit (Applied Biosystems) according to the manufacturer's instructions. TaqMan quantitative real-time PCR was performed using the following primers from Applied Biosystems: Rankl (Mm00441908_m1); Mmp-13 (Mm00439491_m1); OPG (Mm00435452_m1); Wnt10b (Mm00442104_m1); IL-1α (Mm99999060_m1); Sdf-1 (Mm00445553_m1); p21 (Mm00432448_m1). Target gene expression was calculated by normalizing to the housekeeping gene ribosomal protein S2 (Mm00475528_m1) using the ΔCt method (Livak and Schmittgen, 2001).
Total bone marrow cells pooled from 3-5 mice from each group were cultured with 20% FBS, 1% PSG and […] of ascorbic acid in 10-cm culture dishes for 5 days. Half of the medium was replaced every 3 days. Bone marrow-derived osteoprogenitor cells were re-plated into 12-well plates and cultured with […] of ascorbic acid and 10 mM b-glycerophosphate for 21 days. Mineralized matrix was stained with 40 mM Alizarin Red solution.
Bone marrow-derived stromal cells were cultured to 70% confluence, and the media supplemented with rosiglitazone (5 nM/m1) or with 3.3% BSA in PBS as vehicle control. Medium containing ligand was changed every 2 d for 11 d. Cells were fixed in 10% formalin in PBS, rinsed, and stained for 30 min with 0.15% Oil Red 0 (Sigma) in a 55:45 mix of isopropanol and water. Cells were counterstained with 0.5% methyl green (Fisher Scientific, Fairlawn, N.J.) in 0.1 M sodium acetate, pH4. Oil Red 0 staining was quantified after extraction of the dye with 1 ml isopropanol and absorbance determination at 490 nm.

[3] = test system: osteoclast progenitors; test: Five-day administration to aged mice: osteoclast differentiation from bone marrow macrophages; type: in vivo, 24-month-old female mice; settings: bone marrow macrophages from treated mice, cultured with RANKL and M-CSF for 5 days, FIG. 15A and 15B
Procedure: In summary, short-term administration of ABT-263 or Bcl-PROTAC to aged mice decreases senescent osteoprogenitors and osteocytes, as well as the SASP and osteoclastogenesis.
Bone marrow cells were obtained by flushing the tibiae and femurs from the 24 month-old female mice with α-MEM medium (Invitrogen). After the red blood cells were removed with ACK buffer (0.01 mM EDTA, 0.011 M KHCO3, and 0.155 M NH4Cl, pH 7.3), we suspended the cells in α-MEM complete media containing 10% (v/v) fetal bovine serum, 100 U ml-1 penicillin, and 100 μg ml-1 streptomycin and incubated the cells for 24 h in the presence of 10 ng ml-1 M-CSF. We collected the non-adherent cells and cultured with 30 ng ml-1 M-CSF for 3 days to generate bone marrow-derived macrophages. […] We fixed the osteoclast cultures with 10% neutral buffered formalin for 15 min and stained for tartrate-resistant acid phosphatase (TRAP) using the Leukocyte Acid Phosphatase Assay Kit, following the manufacturer's instructions (Sigma-Aldrich). For all assays we plated cells in triplicate.

[4] = test system: senescent cells; test: Cisplatin-induced peripheral neuropathy (CIPN) in p16-3MR transgenic mice, Von Frey assay and Hot Plate Analgesia Meter; type: in vivo; settings: GCV 25 mg/kg/day or ABT263 50 mg/kg/day i.p., 5 days per cycle, 2 cycles, FIG. 8-11
Procedure: as §1, with “and female p16-3MR mice by” for “and female C57BL/6 mice by”, “injection of cisplatin (Lake Zurich,” for “injection of Cisplatin (Lake Zurich,”, “after Cisplatin treatment. N=5-6 mice per group.” for “after Cisplatin treatment”
Mice were treated as described in FIG. 8. The induction of CIPN was measured by analyzing the sensitivity to thermal allodynia using the Hot Plate Analgesia Meter on various day after Cisplatin treatment. N=5-6 mice per group.
To determine the effect of senescent cells on the induction of CIPN, cisplatin-treated mice were administered with vehicle, ganciclovir (GCV) at 25 mg/kg/day for 5 days per cycle for 2 cycles with an interval of 17 days between the cycles, or ABT263 at 50 mg/kg/day for 5 days per cycle for 2 cycles with an interval of 17 days between the cycles by i.p. injection at the indicated times after cisplatin treatment. […] The induction of CIPN was measured by analyzing the mechanical sensitivity using the Von Frey assay (FIG. 8 and FIG. 9) and by analyzing the sensitivity to thermal allodynia using the Hot Plate Analgesia Meter (FIG. 10 and FIG. 11) the day before Cisplatin treatment and on various day after Cisplatin treatment.

[5] = test system: senescent osteocytes; test: Five-day administration to aged mice: western blot and qPCR of osteocyte-enriched femoral bone shafts; type: in vivo, 24-month-old female mice
Procedure: ABT-263 or its derivative Bcl-PROTAC (or vehicles) were administered by daily i.p. injections for 5 days to 24-month-old female mice. […] We have shown that γ-H2AX, p16, GATA4, RANKL and MMP-13 increase, while OPG and Wnt10b decrease with age in bone of female and male mice (Piemontese et al., 2017 JCI Insight).
Osteocyte-enriched femoral cortical bone was prepared by removing the ends, flushing the bone marrow by centrifugation, and removal of surface cells by scraping with a scalpel. Bone fragments were immediately frozen in liquid nitrogen and pulverized. Proteins were extracted with a buffer containing 20 mM Tris-HCL, 150 mM NaCl, 1% Triton X-100, protease inhibitor mixture, and phosphatase inhibitor cocktail (Sigma-Aldrich) on ice for 30 min and then keep on −80° C. for overnight. The protein concentration of the bone extract was determined using the DC Protein Assay Kit (Bio-Rad). The extracted protein ([…] per sample) was subjected to 15% SDS-PAGE gels and transferred electrophoretically onto PVDF membranes. The membranes were blocked in 5% fat-free milk/Tris-buffered saline for 120 min and incubate with each primary antibody followed by secondary antibodies conjugated with horseradish peroxidase. […] Bound antibodies were detected with ECL reagents (Millipore), and imaged and quantified with a VersaDoc™ imaging system (Bio-Rad).
as §2

[6] = test system: platelets; settings: administration to subjects; platelets rely on Bcl-xl for survival; cited from earlier work
[7] = biological target: T1, Bcl-xL (Homo sapiens, UniProt Q07817); test: Protein degradation assay (western blot) in IR-SC WI38 cells; type: cell-based; settings: increasing concentrations for 18 hours (FIG. 3A); fixed concentration for increasing times (FIG. 3B)
T1 construct: endogenous in cells; host or cells: IR-SC WI38 cells
Procedure: IR-SC WI38 cells were incubated with vehicle or increasing concentrations of XZ-14439 for 18 hours at increasing […] (FIG. 3A) and at a fixed concentration of XZ-14439 for increasing times (FIG. 3B). The cells were digested with 0.25% trypsin and 1 mM EDTA, and harvested in RIPA lysis buffer with 1% Phosphatase Inhibitor Cocktail 3 and 1% Protease Inhibitor Cocktail. An equal amount of protein (15-30 μg/lane) from each cell extract was resolved on a 12% SDS-PAGE gel. Proteins were blotted onto a NOVEX PVDF membrane by electrophoresis. The membranes were blocked with TBS-T blocking buffer (5% nonfat milk in 25 mM Tris-HCL, pH 7.4; 3 mM KCl; […] NaCl; and 0.05% Tween) and probed with primary antibodies (at a predetermined optimal concentration) overnight at 4° C. or for 1 hour at room temperature. […] After three washes with TBS-T, the proteins of interest were detected with ECL Western Blotting Detection Reagents and recorded with autoradiography (Pierce Biotech, Rockford, Ill., USA). […]
IR-SC WI38 (FIG. 4A) and RS4; 11 (FIG. 4B) cells were incubated with vehicle or increasing concentrations of compounds of Formula (I) or Formula (II) for 6 or 16 hours, at 1 μM (FIG. 4A) and 100 nm (FIG. 4B), respectively. […] After three washes with TBS-T, the proteins of interest were detected with ECL Western Blotting Detection Reagents and recorded with autoradiography. […]

[8] = bone marrow-derived stromal cells from treated mice, ex vivo culture, FIG. 13
[9] = femoral extracts, qPCR, FIG. 12B

T1 sequence (Q07817 whole entry): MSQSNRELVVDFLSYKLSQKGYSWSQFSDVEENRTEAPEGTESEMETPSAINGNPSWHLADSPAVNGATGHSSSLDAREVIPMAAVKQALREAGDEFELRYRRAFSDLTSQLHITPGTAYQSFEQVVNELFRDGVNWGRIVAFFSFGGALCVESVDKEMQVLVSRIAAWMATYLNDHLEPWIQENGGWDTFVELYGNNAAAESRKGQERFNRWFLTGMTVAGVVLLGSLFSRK

Bcl-xL depletion in IR-SC WI38 cells, dose and time dependence [7]	Structure (SMILES)	Reversal of cisplatin-induced peripheral neuropathy [1]	Expression of p21 [2, 8]	mRNA levels of RANKL, MMP-13, IL-1a and SDF-1 [2, 8]	Osteoblastogenic potential (Alizarin Red staining) ([2]; stromal cells from treated mice, 21 days in osteogenic medium, FIG. 14A and 14B)	Osteoclastogenic potential (TRAP-positive multinucleated cells) [3]	Reversal of cisplatin-induced peripheral neuropathy [4]	mRNA for OPG [5, 9]	mRNA for RANKL and MMP13 [5, 9]	Markers of cell senescence: protein levels of γ-H2AX, p16 and GATA4 ([5]; osteocyte-enriched femoral bone shafts, daily i.p. for 5 days, western blot, FIG. 12A)	Thrombocytopenia [6]
	CC1(C)CCC(c2ccc(Cl)cc2)=C(CN2CCN(c3ccc(C(=O)NS(=O)(=O)c4ccc(N[C@H](CCN5CCOCC5)CSc5ccccc5)c(S(=O)(=O)C(F)(F)F)c4)cc3)CC2)C1 [ABT-263, (R)-4-(4-((4′-chloro-4,4-dimethyl-3,4,5,6-tetrahydro-[1,1′-biphenyl]-2-yl-)methyl)piperazin-1-yl)-N-((4-((4-morpholino-1-(phenylthio)butan-2-yl)amin-o)-3-((trifluoromethyl)sulfonyl)phenyl)sulfonyl)benzamide]	reversed Cisplatin-induced peripheral neuropathy (CIPN)	decreased expression of p21	decreased mRNA levels of RANKL and MMP-13, as well as IL-1a and SDF-1	promotes osteoblastogenesis	decreased osteoclastogenic potential	reversed cisplatin-induced peripheral neuropathy (CIPN)	increased the mRNA for OPG	decreased the mRNA for RANKL and MMP13	decreased marker of cell senescence	cause thrombocytopenia
depletes Bcl-xL	CC1(C)CCC(c2ccc(Cl)cc2)=C(CN2CCN(c3ccc(C(=O)NS(=O)(=O)c4ccc(N[C@H](CCN5CCN(C(=O)CCCn6cc(COCCOCCOCCNc7cccc8c7C(=O)N(C7CCC(=O)NC7=O)C8=O)nn6)CC5)CSc5ccccc5)c(S(=O)(=O)C(F)(F)F)c4)cc3)CC2)C1 (stereo partly drawn) [XZ-14439, 4-(4-((4′-chloro-4,4-dimethyl-3,4,5,6-tetrahydro-[1,1′-biphenyl]-2-yl)methyl)piperazin-1-yl)-N-((4-(((2R)-4-(4-(4-(4-((2-(2-(2-((2-(2,6-dioxopiperidin-3-yl)-1,3-dioxoisoindolin-4-yl)amino)ethoxy)ethoxy)ethoxy)methyl)-1H-1,2,3-triazol-1-yl)butanoyl)piperazin-1-yl)-1-(phenylthio)butan-2-yl)amino)-3-((trifluoromethyl)sulfonyl)phenyl)sulfonyl)benzamide]										
